These results are taken from PMC2116318 (The Journal of Cell Biology, 1990).

Assay [1] has as its system sea urchin egg CaM kinase. Kind of assay: Autocamtide-2 phosphorylation by sea urchin egg extracts. The class given is biochemical, L. pictus (sea urchin).
Assay [2] has as its system rat brain CaM kinase. Nature of the assay: Autophosphorylation of rat brain CaM kinase. The settings on record: 50 μM peptide in Fig. 5 B. The class given is biochemical.
Assay [3] concerns L. pictus eggs (nuclear envelope breakdown). Kind of assay: Nuclear envelope breakdown. The class given is cell-based, L. pictus (sea urchin). The settings on record: for Delay of NEB (fraction of eggs) / Duration of delay of NEB / Normal NEB (fraction of eggs): Table I, injected before fertilization.
Assay [4] concerns 56-kD α-like egg polypeptide (sea urchin egg CaM kinase). Kind of assay: Endogenous phosphorylation in sea urchin egg calmodulin-depleted cytosol. The class given is biochemical, L. pictus (sea urchin). The settings on record: 50 μM peptide in Fig. 5 A.
The test system of assay [5] is rat brain CaM kinase. Nature of the assay: Autocamtide-2 phosphorylation by purified rat brain CaM kinase. The class given is biochemical.
Setting [6] is: higher concentrations, over 4% of the cell volume.

Take “CaMK(284-302): control peptide, lacks a critical region of the autoinhibitory domain and therefore does not inhibit CaM kinase (QETVDCLKKFNARRKLKGA; UniProt P11275 284-302, looked up, fragment)”: in assay [1] (Discussion summary), the “inhibition of egg kinase (in words)” value is “very weak inhibitor”. Moreover, in assay [1] (calmodulin-depleted cytosol fractions, Fig. 4), the “phosphorylation of autocamtide-2 (effect in words)” value is on record as “not affected”. Further, the “inhibitory effects on phosphorylation of autocamtide-2 (in words)” value in assay [1] (sea urchin egg extracts, concentrations up to 100 μM, Fig. 4) is “no apparent inhibitory effects”. The “autophosphorylation of rat brain kinase (effect in words)” value in assay [2] is reported as “only slightly inhibited”. Moreover, the “effect on NEB (in words)” value in assay [3] (Discussion summary) is “minimal effects on NEB”. Also, in assay [3] (1.7-3.5% vol, 60-190 μM), the “Delay of NEB (fraction of eggs)” value is 1/9, the “Duration of delay of NEB” value is reported as 9 min and the “Normal NEB (fraction of eggs)” value is 8/9. Moreover, in assay [3] (4.1-4.8% vol, 220-260 μM), the “Delay of NEB (fraction of eggs)” value was 3/4, the “Duration of delay of NEB” value is 11 to 27 min and the “Normal NEB (fraction of eggs)” value is on record as 1/4. For the same substance, in assay [3] (control peptide, text on Fig. 6), the “NEB (in words)” value is recorded as “normal NEB”. The “delay of NEB in one case” value in assay [3] (estimated intracellular concentration 80 μM) is reported as 9 min. Further, the “delay of NEB” value in assay [3] (higher concentrations, injection volumes over 4% of the cell volume) was 11 to 27 min. Moreover, in assay [3] (setting [6]), the “cases in which NEB proceeded normally” value is “one case” and the “cases with delayed NEB” value is “three of four”. Besides, the “endogenous phosphorylation of the α-like subunit (effect in words)” value in assay [4] was “only marginally affected”. Besides, the “inhibition of brain kinase (in words)” value in assay [5] (Discussion summary) is on record as “very weak inhibitor”. Moreover, in assay [5] (Fig. 4), the “inhibition of rat brain kinase (in words)” value is “does not inhibit rat brain kinase”.
